{"source": "patent US20110045065A1", "about": "“SUBSTANCE HAVING ANTIOXIDANT, GEROPROTECTIVE AND ANTI-ISCHEMIC ACTIVITY AND METHOD FOR THE PREPARATION THEREOF” (priority 2005, published 2011)", "key": {"[1]": {"test": "Antiradical activity by chemiluminescence (rate constant k7)", "format": "physicochemical", "protocol": "The efficiency of 3-hydroxypyridine derivatives as inhibitors of free radical reactions was determined by hemiluminescent method by means of measurement of speed constants of their reaction with ethyl-benzene k7 peroxide radicals.\nThe measurements of intensity of chemiluminescence (HL) have been carried out with an apparatus CNK-7, designed and made by IHF RAN USSR. A photomultiplier FAU-38 is used as an optical receiver. The fixed concentration of radicals during oxidation of […] (cumole) is controlled by an initiator being azo-bis-isobutyronitrile.\nIn order to increase HL emission the activator chelate Eu (europium tristenoyl triphtoroacetonate with 1,10-phenatroline) has been used that has allowed to conduct measurements at low speed values of radical initiation (W1=10^−8-10^−9 mol/I.s.) and, therefore, at small amounts of added sample. A weighed amount of samples studied was diluted in an suitable solvent (chlorobenzene or acetonitrile) and a small amount of the prepared solution (0.1-0.25 ml) was added to the reaction mixture (5-6 ml), arranged in a temperature-controlled reaction vessel of the HL-device. The change of emission intensity was recorded."}, "traumatic hemophthalmia": {"test_system": "traumatic hemophthalmia", "test": "Experimental traumatic hemophthalmia: biochemical parameters in blood serum, tear liquid, anterior chamber liquid and eye tissue", "format": "in vivo, chinchilla rabbits", "protocol": "Studies were carried out in 12 chinchilla rabbits having body weight 2.0-2.5 kg. A traumatic hemophthalmia was modeled by introduction of 0.5 to 0.7 ml of autoblood into a vitreous body through a puncture in a sclera on distance of 5 mm from a limbus, under a local anaesthesia. The basic group made with 6 rabbits (12 eyes), daily received a formulation prepared in accordance with the present invention parabulbarly (0.5 ml of 1% solution). A control group presented by 6 animals (12 eyes), daily received parabulbar emoxipin (2-ethyl-6-methyl-3-hydroxypiridin) in the same dosage. Treatment was carried out within 14 days after a trauma.\nThe materials used for biochemical examination were as follows: blood, liquid of the anterior chamber, tear liquid, tunics of eyeglobe (retina, a vitreous body). The blood was taken from the aural vein in an amount of 3 ml. Sampling of tear liquid was carried out by a microcapillary after instillation of distilled water into the conjunctival cavity. Liquid of the anterior chamber was obtained by paracentesis. The blood sampling as well as liquid of the anterior chamber and teat liquid were carried out on the 1st, 7th and 14th day of the experiment. On the 15th day of the studies, the animals were killed (pithed) by air embolism and both the eyes were enucleated. The eyes were prepared by tunic separation. Retina and vitreous body were obtained."}, "[2]": {"test_system": "lipofuscin induced cardiolipin photoperoxidation", "test": "Inhibition of lipofuscin induced cardiolipin liposome photoperoxidation", "format": "biochemical, human", "settings": "for Concentration of TBK-active products / Inhibition: 2 mM compound; for Inhibiting / protective effect regarding phototoxic action of lipofuscin granules: result in words", "protocol": "Liposomes are prepared from methanolic solution of cardiolipin (initial concentration: 5 mg/ml) by evaporation of methanol and solubilization of cardiolipin in a phosphate buffer. A mixture comprising a suspension of liposomes and lipofuscin granules, isolated from tissue of a retinal pigmentary epithelium of a human eye, is subjected to irradiation with intensive blue light under constant stirring. Concentration of lipid peroxidation products (TBK-active products) is determined after 20, 40, 60 and 90 minutes. The experimental sample contained 2 mM of a solution of compound Ic, or 2 mM of a solution of mexydole."}, "[3]": {"settings": "1st day, anterior chamber liquid (ACL)"}, "[4]": {"settings": "7th day, anterior chamber liquid (ACL)"}, "[5]": {"settings": "14th day, anterior chamber liquid (ACL)"}}}
{"substance": "2,4,6-trimethyl-3-oxypyridine succinate [Compound Ic]", "values": [{"measurement": "Antiradical activity in comparison with mexydole", "setting": "[1]; result in words", "result": "two times higher antiradical activity"}, {"measurement": "k7 × 10^−4", "setting": "[1]; speed constant of reaction with ethyl-benzene peroxide radicals", "result": 9.5, "unit": "l/mol × sec"}, {"measurement": "AOA", "setting": "traumatic hemophthalmia; [3]", "result": "0.4 ± 0.01", "unit": "relative unit"}, {"measurement": "Concentration of TBA-active products", "setting": "traumatic hemophthalmia; [3]", "result": "0.97 ± 0.18", "unit": "nmol/mL"}, {"measurement": "Protein concentration", "setting": "traumatic hemophthalmia; [3]", "result": "3.1 ± 1.2", "unit": "mg/mL"}, {"measurement": "AOA", "setting": "traumatic hemophthalmia; 1st day, blood serum (BS)", "result": "1.7 ± 0.3", "unit": "relative unit"}, {"measurement": "Concentration of TBA-active products", "setting": "traumatic hemophthalmia; 1st day, blood serum (BS)", "result": "1.29 ± 0.13", "unit": "nmol/mL"}, {"measurement": "Protein concentration", "setting": "traumatic hemophthalmia; 1st day, blood serum (BS)", "result": "90.0 ± 6.0", "unit": "mg/mL"}, {"measurement": "AOA", "setting": "traumatic hemophthalmia; 1st day, tear liquid (TL)", "result": "0.23 ± 0.02", "unit": "relative unit"}, {"measurement": "Concentration of TBA-active products", "setting": "traumatic hemophthalmia; 1st day, tear liquid (TL)", "result": "0.14 ± 0.01", "unit": "nmol/mL"}, {"measurement": "Protein concentration", "setting": "traumatic hemophthalmia; 1st day, tear liquid (TL)", "result": "0.32 ± 0.2", "unit": "mg/mL"}, {"measurement": "AOA of basic group relative to control group, average of all measured substrata", "setting": "traumatic hemophthalmia; 7th day", "result": 1.5, "unit": "times"}, {"measurement": "AOA", "setting": "traumatic hemophthalmia; 7th day, anterior chamber liquid", "result": "0.8±0.07 /100 mcl"}, {"measurement": "AOA", "setting": "traumatic hemophthalmia; [4]", "result": "0.8 ± 0.07", "unit": "relative unit"}, {"measurement": "Concentration of TBA-active products", "setting": "traumatic hemophthalmia; [4]", "result": "0.8 ± 0.5", "unit": "nmol/mL"}, {"measurement": "Protein concentration", "setting": "traumatic hemophthalmia; [4]", "result": "4.4 ± 1.2", "unit": "mg/mL"}, {"measurement": "AOA", "setting": "traumatic hemophthalmia; 7th day, blood serum", "result": "2.4±0.02 /100 mcl"}, {"measurement": "AOA", "setting": "traumatic hemophthalmia; 7th day, blood serum (BS)", "result": "2.4 ± 0.02", "unit": "relative unit"}, {"measurement": "Concentration of TBA-active products", "setting": "traumatic hemophthalmia; 7th day, blood serum (BS)", "result": "1.17 ± 0.05", "unit": "nmol/mL"}, {"measurement": "Protein concentration", "setting": "traumatic hemophthalmia; 7th day, blood serum (BS)", "result": "82.4 ± 1.3", "unit": "mg/mL"}, {"measurement": "AOA", "setting": "traumatic hemophthalmia; 7th day, tear liquid", "result": "0.24±0.02 /200 mcl"}, {"measurement": "AOA", "setting": "traumatic hemophthalmia; 7th day, tear liquid (TL)", "result": "0.24 ± 0.02", "unit": "relative unit"}, {"measurement": "Concentration of TBA-active products", "setting": "traumatic hemophthalmia; 7th day, tear liquid (TL)", "result": "0.13 ± 0.05", "unit": "nmol/mL"}, {"measurement": "Protein concentration", "setting": "traumatic hemophthalmia; 7th day, tear liquid (TL)", "result": "0.7 ± 0.2", "unit": "mg/mL"}, {"measurement": "AOA", "setting": "traumatic hemophthalmia; 14th day, anterior chamber liquid", "result": "0.5±0.05 /100 mcl"}, {"measurement": "AOA", "setting": "traumatic hemophthalmia; [5]", "result": "0.5 ± 0.05", "unit": "relative unit"}, {"measurement": "Concentration of TBA-active products", "setting": "traumatic hemophthalmia; [5]", "result": "0.6 ± 0.2", "unit": "nmol/mL"}, {"measurement": "Protein concentration", "setting": "traumatic hemophthalmia; [5]", "result": "4.1 ± 1.1", "unit": "mg/mL"}, {"measurement": "AOA", "setting": "traumatic hemophthalmia; 14th day, blood serum", "result": "1.9±0.7 /100 mcl"}, {"measurement": "AOA", "setting": "traumatic hemophthalmia; 14th day, blood serum (BS)", "result": "1.9 ± 0.7", "unit": "relative unit"}, {"measurement": "Concentration of TBA-active products", "setting": "traumatic hemophthalmia; 14th day, blood serum (BS)", "result": "0.9 ± 0.15", "unit": "nmol/mL"}, {"measurement": "Protein concentration", "setting": "traumatic hemophthalmia; 14th day, blood serum (BS)", "result": "47.0 ± 3.0", "unit": "mg/mL"}, {"measurement": "AOA", "setting": "traumatic hemophthalmia; 14th day, tear liquid", "result": "0.08±0.02 /200 mcl"}, {"measurement": "AOA", "setting": "traumatic hemophthalmia; 14th day, tear liquid (TL)", "result": "0.08 ± 0.02", "unit": "relative unit"}, {"measurement": "Concentration of TBA-active products", "setting": "traumatic hemophthalmia; 14th day, tear liquid (TL)", "result": "0.04 ± 0.07", "unit": "nmol/mL"}, {"measurement": "Protein concentration", "setting": "traumatic hemophthalmia; 14th day, tear liquid (TL)", "result": "0.6 ± 0.2", "unit": "mg/mL"}, {"measurement": "AOA", "setting": "traumatic hemophthalmia; Retina, listed under 14th day (eyes enucleated on the 15th day)", "result": "0.4 ± 0.07", "unit": "relative unit"}, {"measurement": "AOA", "setting": "traumatic hemophthalmia; Vitreous body, listed under 14th day (eyes enucleated on the 15th day)", "result": "3.5 ± 0.9", "unit": "relative unit"}, {"measurement": "Antioxidant activity in vivo in comparison", "setting": "traumatic hemophthalmia; conclusion in words", "result": "higher antioxidant activity than emoxipin"}, {"measurement": "Augmentation of AOA in basic group in comparison with the control group", "setting": "traumatic hemophthalmia; eye tunics, a retina and a vitreous body", "result": 2, "unit": "times"}, {"measurement": "Concentration of TBK-active products", "setting": "[2]; radiation time 0 min", "result": 1.3, "unit": "nmol/mg lipid"}, {"measurement": "Inhibition", "setting": "[2]; radiation time 0 min", "result": 0, "unit": "%"}, {"measurement": "Concentration of TBK-active products", "setting": "[2]; radiation time 20 min", "result": 2.42, "unit": "nmol/mg lipid"}, {"measurement": "Inhibition", "setting": "[2]; radiation time 20 min", "result": 20, "unit": "%"}, {"measurement": "Concentration of TBK-active products", "setting": "[2]; radiation time 40 min", "result": 2.53, "unit": "nmol/mg lipid"}, {"measurement": "Inhibition", "setting": "[2]; radiation time 40 min", "result": 28, "unit": "%"}, {"measurement": "Concentration of TBK-active products", "setting": "[2]; radiation time 60 min", "result": 2.85, "unit": "nmol/mg lipid"}, {"measurement": "Inhibition", "setting": "[2]; radiation time 60 min", "result": 40, "unit": "%"}, {"measurement": "Concentration of TBK-active products", "setting": "[2]; radiation time 90 min", "result": 3.28, "unit": "nmol/mg lipid"}, {"measurement": "Inhibition", "setting": "[2]; radiation time 90 min", "result": 40, "unit": "%"}, {"measurement": "Inhibiting / protective effect regarding phototoxic action of lipofuscin granules", "setting": "[2]", "result": "active inhibitor"}, {"measurement": "Inhibiting / protective effect regarding phototoxic action of lipofuscin granules", "setting": "[2]; listed as I", "result": "protective effect"}]}
